These results are taken from patent US20240122179A1, “AUXINIC HERBICIDES AND METHODS OF USE THEREOF” (CORTEVA AGRISCIENCE LLC, priority 2021, published 2024).

In one data set the test system is Amaranthus rudis (AMATA). Description: Postemergence herbicide evaluation, percent reduction in plant size vs untreated control, 21 days after treatment. It counts as in vivo, Amaranthus rudis (tall water hemp). To be noted: Amaranthus tuberculatus, post-emergence, 504 h, AMATA, postemergence, read-out: Control/Injury; for pest or weed control at 140 g/ha: rate 140 g ae/ha; for pest or weed control at 280 g/ha: rate 280 g ae/ha. An outline of the steps: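 Greenhouse-grown tall waterhemp (25-28° C, 16 h light) at the 2-8 leaf stage, treated by track sprayer at 187 L/ha with compound at 140 or 280 g ae/ha in acetone/DMSO-based spray solution with crop oil and surfactant. 3-4 replicates per treatment, randomized complete block; plant size reduction versus untreated control measured 21 days after treatment.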

Data set [1] relates to Ambrosia artemisiifolia (AMBEL). Described as above. It counts as in vivo, Ambrosia artemisiifolia (common ragweed). To be noted: post-emergence, 504 h, AMBEL, postemergence, read-out: Control/Injury; for pest or weed control at 140 g/ha: rate 140 g ae/ha; for pest or weed control at 280 g/ha: rate 280 g ae/ha. An outline of the steps:
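Greenhouse-grown plants (25–28 °C, 16 h light) were sprayed postemergence at the 2–8 leaf stage with 140 or 280 g ae/ha in acetone/DMSO-based spray solution with crop oil and surfactant, at 187 L/ha by track sprayer. There were 3–4 replicates. Plant size was measured 21 days after treatment versus untreated plants.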

The next data set deals with Kochia scoparia (KCHSC). The data set is described as above. The note with it: Bassia scoparia, post-emergence, 504 h, KCHSC, postemergence, read-out: Control/Injury; for pest or weed control at 140 g/ha: rate 140 g ae/ha; for pest or weed control at 280 g/ha: rate 280 g ae/ha. It counts as in vivo. The essentials:
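Greenhouse-grown plants (25-28 °C, 16 h light) at the 2 to 8 leaf stage were track-sprayed postemergence at 140 or 280 g ae/ha in acetone/DMSO-based spray solution with crop oil and surfactant, at 187 L/ha, in 3-4 randomized replicates.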

Data set [2] deals with Amaranthus palmeri (AMAPA). The data set is described as above. It counts as in vivo, Amaranthus palmeri (Palmer amaranth). The note with it: post-emergence, 504 h, R-AMAPA, postemergence, percent reduction vs untreated control, 21 days after treatment, read-out: Control/Injury; for pest or weed control at 140 g/ha: rate 140 g ae/ha; for pest or weed control at 280 g/ha: rate 280 g ae/ha. An outline of the steps: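 Greenhouse-grown Palmer amaranth (25 to 28° C, 16 h light) sprayed postemergence at the 2 to 8 leaf stage with 140 or 280 g ae/ha in acetone/DMSO-based solution containing crop oil concentrate, 187 L/ha by track sprayer. Three to four replicates; plant size measured 21 days after treatment as percent reduction versus untreated control.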

For data set [3], the system named is Conyza canadensis (L.) (ERICA). The data set is described as above. It counts as in vivo, Conyza canadensis (L.) (Horseweed). To be noted: Erigeron canadensis, post-emergence, 504 h, ERICA, postemergence, 21 days after treatment, read-out: Control/Injury; for pest or weed control at 140 g/ha: rate 140 g ae/ha; for pest or weed control at 280 g/ha: rate 280 g ae/ha. The essentials:
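Horseshoe-weed (horseweed) seedlings at 2 to 8 leaf stage in greenhouse (25-28° C, 16 h light), sprayed postemergence at 140 or 280 g ae/ha in acetone/DMSO-based spray solution, 187 L/ha track-sprayer. Randomized complete block, 3-4 replicates; plant size measured 21 days after treatment as percent reduction vs untreated controls.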

The subject of another data set is Glycine max. The data set is described as follows: whole plant or invertebrate. To be noted: for plant injury at 140 g/ha / plant injury at 280 g/ha: Glycine max, post-emergence, 504 h, read-out: Control/Injury. An outline of the steps:
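Greenhouse soybean (25–28 °C, 16 h light) sprayed post-emergence at 2–8 leaf stage with 140 or 280 g ae/ha in acetone/DMSO-based spray solution with crop oil concentrate, 187 L/ha by track sprayer; 3–4 replicates, randomized blocks. Plant size reduction versus untreated control measured 21 days after treatment.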

The mark [4] stands for this setting: percent reduction vs untreated control.
Setting [5] is: percent reduction vs untreated control, 21 days after treatment.
[6] abbreviates: percent reduction vs untreated, 21 days after treatment.

Like-named read-outs stand apart in the source and are kept apart here.

As to `COc1c(Cl)ccc(Cl)c1C(=O)ON1C(=O)c2ccccc2C1=O` [Compound A-74], the pest or weed control at 140 g/ha was found to be 70% in the data set with Amaranthus rudis (AMATA); 77% in data set [1]; 94% with Kochia scoparia (KCHSC); 68% in data set [2]; 70% in data set [3] (setting [4]). Also, the pest or weed control at 280 g/ha is 90% in the data set with Amaranthus rudis (AMATA); 88% in data set [1]; 97% in the data set on Kochia scoparia (KCHSC); 85% in data set [2]; 83% in data set [3] (setting [4]). Further, the plant injury at 140 g/ha in the data set with Glycine max was 2%. In addition, in the data set on Glycine max, the plant injury at 280 g/ha amounted to 3%.
`COc1c(Cl)ccc(Cl)c1C(=O)O/N=C/c1cccnc1` [Compound A-81]: the pest or weed control at 140 g/ha in the data set on Amaranthus rudis (AMATA) was determined as 3%; in data set [1], 15%; with Kochia scoparia (KCHSC) (setting [5]), 2%; in data set [2], 17%; in data set [3] (setting [4]), 0%. Moreover, the pest or weed control at 280 g/ha stood at 8% in the data set on Amaranthus rudis (AMATA); 27% in data set [1]; 7% in the data set with Kochia scoparia (KCHSC) (setting [5]); 15% in data set [2]; 7% in data set [3] (setting [4]). Besides, the plant injury at 140 g/ha in the data set on Glycine max stood at 19%. Moreover, the plant injury at 280 g/ha in the data set on Glycine max was 20%.
Consider `COc1c(Cl)ccc(Cl)c1C(=O)Oc1ccc(Cl)cc1` [Compound A-76], for which the pest or weed control at 140 g/ha worked out at 68% with Amaranthus rudis (AMATA); 80% in data set [1]; 83% in the data set on Kochia scoparia (KCHSC); 55% in data set [2]; 68% in data set [3] (setting [4]). Moreover, the pest or weed control at 280 g/ha in the data set with Amaranthus rudis (AMATA) amounted to 67%; in data set [1], 83%; in the data set with Kochia scoparia (KCHSC), 87%; in data set [2], 65%; in data set [3] (setting [4]), 55%. For the same compound, in the data set with Glycine max, the plant injury at 140 g/ha came out at 4%. Also, the plant injury at 280 g/ha in the data set with Glycine max was found to be 4%.
Take `CCCCCC(=O)NOC(=O)c1c(Cl)ccc(Cl)c1OC` [Compound A-80]: the pest or weed control at 140 g/ha is 33% in the data set with Amaranthus rudis (AMATA); 63% in data set [1]; 13% in the data set on Kochia scoparia (KCHSC) (setting [5]); 20% in data set [2]; 20% in data set [3] (setting [4]). For the same compound, the pest or weed control at 280 g/ha in the data set with Amaranthus rudis (AMATA) came to 38%; in data set [1], 62%; with Kochia scoparia (KCHSC) (setting [5]), 22%; in data set [2], 35%; in data set [3] (setting [4]), 23%. Also, the plant injury at 140 g/ha in the data set with Glycine max stood at 2%. In addition, the plant injury at 280 g/ha in the data set on Glycine max is 4%.
On to `COc1c(Cl)ccc(Cl)c1C(=O)OCC[N+](C)(C)C` [Compound A-63], for which the pest or weed control at 140 g/ha came out at 58% in the data set on Amaranthus rudis (AMATA); 82% in data set [1]; 92% in the data set on Kochia scoparia (KCHSC); 73% in data set [2]; 85% in data set [3] (setting [4]). In addition, the pest or weed control at 280 g/ha in the data set on Amaranthus rudis (AMATA) turned out to be 77%; in data set [1] it was 97%; in the data set with Kochia scoparia (KCHSC) it was 97%; in data set [2] it was 87%; in data set [3] (setting [4]) it was 92%. The Control/Injury with Glycine max (GLXMA (soybean crop injury), rate 140 g ae/ha, postemergence, percent reduction vs untreated control, 21 days after treatment) was 2; in the data set with Glycine max (GLXMA (soybean crop injury), rate 280 g ae/ha, postemergence, percent reduction vs untreated control, 21 days after treatment), 5.
For `COc1c(Cl)ccc(Cl)c1C(=O)O/N=C/c1cccc(/C=N/OC(=O)c2c(Cl)ccc(Cl)c2OC)c1` [Compound A-143], the pest or weed control at 140 g/ha in the data set on Amaranthus rudis (AMATA) was 73%; in data set [1] it was 86%; in the data set on Kochia scoparia (KCHSC) (setting [6]), 88%; in data set [2], 70%; in data set [3] (percent reduction vs untreated) it was 80%. The pest or weed control at 280 g/ha in the data set with Amaranthus rudis (AMATA) was determined as 48%; in data set [1], 86%; with Kochia scoparia (KCHSC) (setting [6]) it was 88%; in data set [2] it was 64%; in data set [3] (percent reduction vs untreated), 93%. Besides, the Control/Injury in the data set on Glycine max (in vivo) turned out to be 0.
As for `CC/C(C)=N/OC(=O)c1c(Cl)ccc(Cl)c1OC` [Compound A-91], the pest or weed control at 140 g/ha in the data set on Amaranthus rudis (AMATA) was determined as 72%; in data set [1], 82%; in the data set on Kochia scoparia (KCHSC) (setting [5]), 78%; in data set [2], 72%; in data set [3] (setting [4]), 85%. For the same compound, the pest or weed control at 280 g/ha with Amaranthus rudis (AMATA) is 78%; in data set [1], 96%; with Kochia scoparia (KCHSC) (setting [5]) it was 98%; in data set [2] it was 88%; in data set [3] (setting [4]), 88%. Also, in the data set with Glycine max, the plant injury at 140 g/ha was determined as 3%. Also, the plant injury at 280 g/ha with Glycine max was found to be 3%.
Take `CO/C(=N\OC(=O)c1c(Cl)ccc(Cl)c1OC)c1ccccc1` [Compound A-83]: the pest or weed control at 140 g/ha with Amaranthus rudis (AMATA) worked out at 65%; in data set [1], 93%; in the data set with Kochia scoparia (KCHSC) (setting [5]), 85%; in data set [2], 70%; in data set [3] (setting [4]), 90%. The pest or weed control at 280 g/ha in the data set with Amaranthus rudis (AMATA) is 65%; in data set [1], 87%; in the data set on Kochia scoparia (KCHSC) (setting [5]) it was 94%; in data set [2], 83%; in data set [3] (setting [4]), 97%. Besides, the plant injury at 140 g/ha in the data set with Glycine max worked out at 22%. Also, the plant injury at 280 g/ha with Glycine max amounted to 15%.
In the case of `CCOC(=O)C(=NOC(=O)c1c(Cl)ccc(Cl)c1OC)C(=O)OCC` [Compound A-87], the pest or weed control at 140 g/ha in the data set on Amaranthus rudis (AMATA) was 37%; in data set [1] it was 70%; with Kochia scoparia (KCHSC) (setting [5]) it was 90%; in data set [2], 62%; in data set [3] (setting [4]), 30%. In addition, the pest or weed control at 280 g/ha with Amaranthus rudis (AMATA) was 20%; in data set [1] it was 65%; with Kochia scoparia (KCHSC) (setting [5]), 70%; in data set [2], 53%; in data set [3] (setting [4]) it was 33%. In addition, in the data set on Glycine max, the plant injury at 140 g/ha amounted to 5%. Besides, the plant injury at 280 g/ha in the data set on Glycine max is 28%.
For the compound `COc1c(Cl)ccc(Cl)c1C(=O)OC(=O)c1c(Cl)ccc(Cl)c1OC` [Compound A-90], the pest or weed control at 140 g/ha worked out at 22% in the data set with Amaranthus rudis (AMATA); 57% in data set [1]; 17% with Kochia scoparia (KCHSC) (setting [5]); 32% in data set [2]; 30% in data set [3] (setting [4]). Besides, the pest or weed control at 280 g/ha in the data set on Amaranthus rudis (AMATA) came out at 18%; in data set [1] it was 67%; in the data set on Kochia scoparia (KCHSC) (setting [5]), 32%; in data set [2], 40%; in data set [3] (setting [4]) it was 25%. Moreover, the plant injury at 140 g/ha with Glycine max worked out at 8%. Besides, the plant injury at 280 g/ha in the data set with Glycine max came out at 3%.
